According to patent US5952328A, “Benzothiazo and related heterocyclic group-containing cysteine and serine protease inhibitors” (Cephalon, Inc., priority 1997, dated 1999):

Target: T1, Calpain I (Homo sapiens, UniProt P07384)
T1 construct: made in house
T1 sequence (P07384 1-714): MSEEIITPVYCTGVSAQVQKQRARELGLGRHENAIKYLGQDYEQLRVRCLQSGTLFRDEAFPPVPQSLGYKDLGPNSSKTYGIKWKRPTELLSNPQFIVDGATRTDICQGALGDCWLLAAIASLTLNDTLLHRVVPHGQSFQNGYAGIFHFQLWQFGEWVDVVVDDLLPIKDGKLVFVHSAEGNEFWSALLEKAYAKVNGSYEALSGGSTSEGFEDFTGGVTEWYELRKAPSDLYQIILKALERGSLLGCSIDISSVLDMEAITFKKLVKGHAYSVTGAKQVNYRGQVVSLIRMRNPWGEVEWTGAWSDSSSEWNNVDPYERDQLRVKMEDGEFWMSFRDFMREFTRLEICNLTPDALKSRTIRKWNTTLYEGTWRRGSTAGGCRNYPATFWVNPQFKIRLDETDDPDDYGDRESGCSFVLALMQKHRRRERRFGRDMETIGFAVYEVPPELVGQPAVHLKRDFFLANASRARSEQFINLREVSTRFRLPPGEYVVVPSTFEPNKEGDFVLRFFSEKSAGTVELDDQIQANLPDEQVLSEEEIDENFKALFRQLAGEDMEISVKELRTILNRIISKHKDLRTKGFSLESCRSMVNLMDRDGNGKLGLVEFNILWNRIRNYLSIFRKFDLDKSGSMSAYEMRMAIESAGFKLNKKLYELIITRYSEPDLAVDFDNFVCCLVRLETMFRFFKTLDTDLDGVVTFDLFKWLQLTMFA
T1 sequence (P04632 1-268 partner): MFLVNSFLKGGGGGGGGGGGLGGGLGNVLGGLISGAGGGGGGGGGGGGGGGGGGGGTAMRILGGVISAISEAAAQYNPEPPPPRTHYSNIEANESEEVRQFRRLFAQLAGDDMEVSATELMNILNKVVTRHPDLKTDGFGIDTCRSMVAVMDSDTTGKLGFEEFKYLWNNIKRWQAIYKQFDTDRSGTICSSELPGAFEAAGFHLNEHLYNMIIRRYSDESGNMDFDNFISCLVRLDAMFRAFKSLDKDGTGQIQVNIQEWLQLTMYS
Assay: Inhibition of calpain I activity (Succ-Leu-Tyr-MNA substrate hydrolysis, fluorescence)
Format: biochemical
Conditions: Table III; calpain I, 0.2 mM Succ-Leu-Tyr-MNA, pH 7.5; * mixture of diastereomers, a,b single diastereomers; read-out: IC50
Method: To evaluate inhibitory activity, stock solutions (40 times concentrated) of each compound to be tested were prepared in 100% anhydrous DMSO and […] of each inhibitor preparation were aliquoted into each of three wells of a 96-well plate. Calpain I, prepared by a modification of the method of W. J. Lee et al. (Biochem. […] To start the reaction, […] of 50 mM CaCl2 in assay buffer was added to each of the wells of the plate, excepting three, which were used as background signal baseline controls. Substrate hydrolysis was monitored every 5 minutes for a total of 30 minutes using a Fluoroskan II fluorescence plate reader. […] Inhibition of calpain I activity was calculated as the percent decrease in the rate of substrate hydrolysis in the presence of inhibitor relative to the rate in its absence. Comparison between the inhibited and control rates was made within the linear range for substrate hydrolysis. For screening, compounds were tested at […]. […] The results were plotted as percent inhibition versus log inhibitor concentration, and the IC50 was calculated from linear regression of the data.

SMILES | IC50
CCCCNC(=O)C(=O)[C@H](Cc1ccccc1)NC(=O)C1Cc2cc3c(cc2S(=O)(=O)N1)OCCO3 (stereo partly drawn) [Cpd 14AD, N-Butyl-3-(3,4-Dihydro-6,7-ethylenedioxy-2H-1,2-benzothiazine-3-carboxamido)-2-oxo-3-(S)-benzylpropanamide 1,1-dioxide] | ~200 nM
CCN1C(C(=O)N[C@@H](Cc2ccccc2)C(=O)C(=O)NCCCNS(=O)(=O)c2ccccc2)Cc2cc3c(cc2S1(=O)=O)OCCO3 (stereo partly drawn) [Cpd 14AA, 3-((3,4-Dihydro-6,7-ethylenedioxy-2-ethyl-2H-1,2-benzothiazine-3-carbonyl)amino)-3-(S)-benzyl-2-oxo-N-(3-(benzenesulfonylamino)propyl)propanamide 1,1-dioxide] | 35 nM
